One experiment deals with T1, human EHMT2 913-1193 (Homo sapiens, UniProt Q96KQ7).
T1 construct: recombinant purified human EHMT2 913-1193, Viva; purchased Viva
T1 sequence (Q96KQ7 913-1193): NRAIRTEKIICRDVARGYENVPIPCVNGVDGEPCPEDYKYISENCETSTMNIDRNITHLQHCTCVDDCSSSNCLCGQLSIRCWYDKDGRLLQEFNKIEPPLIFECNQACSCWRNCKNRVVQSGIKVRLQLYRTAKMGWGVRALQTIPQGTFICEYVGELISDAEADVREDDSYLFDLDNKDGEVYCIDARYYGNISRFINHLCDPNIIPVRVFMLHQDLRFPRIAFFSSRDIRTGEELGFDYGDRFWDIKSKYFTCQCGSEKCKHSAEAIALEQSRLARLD
Put plainly: EHMT2 enzyme assay on histone peptide substrate (EHMT2 PEP). Type of experiment: biochemical. A digest of the protocol: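 Inhibition is measured as reduced tritium incorporation into a biotinylated histone peptide from ^3H-SAM. The enzyme (0.031 nM) sees compound for 30 minutes before a 60-minute room-temperature reaction, which unlabeled SAM quenches prior to streptavidin Flashplate capture.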

For another experiment, the target named is T2, EHMT1 (Homo sapiens, UniProt Q9H9B1).
T2 sequence (Q9H9B1 1-1298): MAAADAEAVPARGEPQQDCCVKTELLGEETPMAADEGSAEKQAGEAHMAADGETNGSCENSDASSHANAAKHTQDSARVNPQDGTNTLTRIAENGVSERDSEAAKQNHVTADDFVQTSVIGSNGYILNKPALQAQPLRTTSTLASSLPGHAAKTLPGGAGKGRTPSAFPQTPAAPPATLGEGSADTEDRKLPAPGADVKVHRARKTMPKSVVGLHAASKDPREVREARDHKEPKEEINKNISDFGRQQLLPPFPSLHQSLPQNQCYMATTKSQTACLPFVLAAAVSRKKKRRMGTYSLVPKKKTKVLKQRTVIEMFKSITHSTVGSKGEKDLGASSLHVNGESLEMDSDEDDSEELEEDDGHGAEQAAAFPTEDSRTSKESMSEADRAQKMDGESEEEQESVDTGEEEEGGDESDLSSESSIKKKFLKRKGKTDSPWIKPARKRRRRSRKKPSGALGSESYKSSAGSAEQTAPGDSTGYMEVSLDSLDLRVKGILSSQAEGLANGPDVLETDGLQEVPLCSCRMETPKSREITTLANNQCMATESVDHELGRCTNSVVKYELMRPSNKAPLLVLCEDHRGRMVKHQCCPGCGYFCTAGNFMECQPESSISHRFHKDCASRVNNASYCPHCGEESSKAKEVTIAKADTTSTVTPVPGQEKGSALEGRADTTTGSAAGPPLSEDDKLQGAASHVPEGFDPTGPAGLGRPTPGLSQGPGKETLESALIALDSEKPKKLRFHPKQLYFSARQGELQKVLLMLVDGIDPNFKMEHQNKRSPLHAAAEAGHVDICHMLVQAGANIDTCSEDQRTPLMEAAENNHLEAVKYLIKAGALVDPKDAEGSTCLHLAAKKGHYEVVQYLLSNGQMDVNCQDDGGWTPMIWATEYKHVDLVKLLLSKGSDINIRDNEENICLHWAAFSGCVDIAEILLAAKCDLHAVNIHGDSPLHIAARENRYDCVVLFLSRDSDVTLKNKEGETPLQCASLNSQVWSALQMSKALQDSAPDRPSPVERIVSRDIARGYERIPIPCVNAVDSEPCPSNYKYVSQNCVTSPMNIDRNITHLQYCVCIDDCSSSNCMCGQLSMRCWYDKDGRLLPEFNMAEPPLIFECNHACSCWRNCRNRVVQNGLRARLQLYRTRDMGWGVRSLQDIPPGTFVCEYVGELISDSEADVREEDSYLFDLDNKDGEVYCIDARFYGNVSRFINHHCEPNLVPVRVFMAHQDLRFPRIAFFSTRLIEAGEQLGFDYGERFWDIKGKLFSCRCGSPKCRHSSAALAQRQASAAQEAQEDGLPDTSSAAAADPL
Put plainly: EHMT1 enzyme assay on peptide substrate (EHMT1 PEP). The class given is biochemical.

Setting [1] is: Table VI, read-out: EHMT2 PEP IC50.
Setting [2] is: Table VI, read-out: EHMT1 PEP IC50.

Read-outs that look alike come from different tables or passages of the source.

Turning to `COc1cc(NC2CCOCC2)ncc1OCC1CCNC1` (stereo not shown) [Compound 806], the IC50 at human EHMT2 913-1193 (setting [1]) and on EHMT1 (setting [2]) was 1 to 10 µM in each case.

For the molecule `COc1ccc(Nc2cc(C)n(C)n2)cc1OCCCN1CCCC1` [Compound 797], the concentration for half-maximal inhibition (IC50) at human EHMT2 913-1193 (setting [1]) and on EHMT1 (setting [2]) was > 10 µM each time.

`COc1cc2c(C3CCN(C)CC3)cc(C#N)nc2cc1OCCCN1CCCC1` [Compound 790]: the 50% inhibitory concentration (IC50) (in general, the concentration that inhibits the measured activity by half) on human EHMT2 913-1193 (setting [1]) is 0.1 to 1 µM; on EHMT1 (setting [2]), < 0.1 µM.

For `CNc1cc(C)nc(Nc2cc(OCCCN3CCCC3)c3nccn3c2)n1` [Compound 618], the concentration for half-maximal inhibition (IC50) at human EHMT2 913-1193 (setting [1]) lay within 1 to 10 µM; on EHMT1 (setting [2]), 0.1 to 1 µM.

As to `COc1cnc(Nc2cc(C)nc3[nH]ccc23)cc1OCCCN1CCCC1` [Compound 336, N-(5-methoxy-4-(3-(pyrrolidin-1-yl)propoxy)pyridin-2-yl)-6-methyl-1H-pyrrolo[2,3-b]pyridin-4-amine], the IC50 is 0.1 to 1 µM at human EHMT2 913-1193 (Table III, read-out: EHMT2 PEP (IC50 μM)) and 0.1 to 1 µM at EHMT1 (Table III, read-out: EHMT1 PEP (IC50 μM)).

The values are drawn from US20210198277A1, “AMINE-SUBSTITUTED ARYL OR HETEROARYL COMPOUNDS” (Epizyme, Inc., priority 2016, published 2021).
